Marks after values point to notes of the source that are not given here.
How the values were obtained:
[1] = Serum and brain chromium levels in high fat diet rats
Description: (§1) Briefly, insulin resistance and hyperglycemia were induced in male Wistar rats by feeding a high fat diet (HFD, 40% of calories as fat). A healthy control group received a standard diet (12% of calories as fat). Rats were fed their diets throughout the 12 week study.
(§2) Rats (10/group) were divided into groups: healthy control (Control), HFD, and HFD+CrHis. Chromium (Cr) treated rats were fed CrHis (110 mcg/kg body wt/d). Cr treatment started at the beginning of the study and was continued for 12 weeks. […] Body weight, serum chromium levels, and blood glucose levels were also measured.

[2] = Body weight and blood glucose in high fat diet rats; assay type: in vivo, male Wistar rats
Description: as §1, §2

[3] = test system: subject having GLUT1 deficiency syndrome; test: Example 3: treatment of subject with GLUT1 deficiency syndrome; assay type: in vivo; details: 50 μg to 5000 μg/day, orally, after a period of time
Description: A subject is identified as having GLUT1 deficiency syndrome. The subject presents with one or more symptoms associated with GLUT1 deficiency syndrome such as the presence of a SLC2A1 mutation, neurological problems associated with GLUT1 deficiency such as stiffness caused by abnormal tensing of the muscles (spasticity), difficulty in coordinating movements (ataxia), and speech difficulties (dysarthria). The subject can experience episodes of confusion, lack of energy (lethargy), headaches, muscle twitches (myoclonus), or involuntary irregular eye movements, particularly before meals.
The subject is administered between 50 μg and 5000 μg chromium histidinate, chromium picolinate, or chromium histidinate/chromium picolinate combination complex/day. The chromium histidinate is administered orally.

[4] = test system: subject having Alzheimer's disease; test: Example 5: treatment of subject with Alzheimer's disease with standard therapeutics; assay type: in vivo; details: 50 μg to 5000 μg chromium orally with standard therapeutics, over a period of five days
[5] = reported (Kaats 1998; Cefalu 1999); cited from earlier work
[6] = test system: subject having Parkinson's disease; test: Example 6: treatment of subject with Parkinson's disease; assay type: in vivo; details: 50 μg to 5000 μg, orally, over time
Protocol: A subject is identified as having Parkinson's disease by conventional methods.
The subject is administered between 50 μg and 5000 μg chromium polyhistidinate. The chromium is administered orally.

[7] = HFD rats, CrHis 110 mcg/kg body wt/d, 12 weeks, mean ± s.e.m.
[8] = compared to the high fat diet alone

Row | Substance | Brain Chromium ([1]; HFD rats, CrHis 110 mcg/kg body wt/d, 12 weeks, brain tissue homogenates, mean ± s.e.m.) | Serum Chromium [1, 7] | brain chromium levels, change [1, 8] | serum chromium levels, change [1, 8] | Blood Glucose [2, 7] | Body Weight [2, 7] | blood glucose levels, change [2, 8] | body weight, change [2, 8] | symptoms of GLUT1 deficiency [3] | subject's condition, as assessed by one or more symptoms of the disease [4] | weight loss and changes in body composition [5] | subject's condition, as assessed by one or more symptoms of the disease [6]
1 | chromium histidinate [CrHis] | 17.7 ± 0.2^c ng/g | 22.0 ± 0.6^c ng/g | significantly increased | significantly increased | 116.4 ± 2.1^c mg/dL | 315.1 ± 1.9^c g | decreased | decreased | reduction in one or more of the symptoms | – | – | –
2 | chromium picolinate | – | – | – | – | – | – | – | – | reduction in one or more of the symptoms | does not worsen or improves | modest weight loss | –
3 | chromium polyhistidinate | – | – | – | – | – | – | – | – | – | – | – | does not worsen or improves
